Where two headings read alike, the source gives them in different places.
Experiments:
SNU-16 = assay: Cellular Proliferation Assay (Cell Counting Kit-8), SNU-16; format: cell-based; conditions: Homo sapiens; SNU-16 cells, 72 hours
Method: (§1) Example 26: Cellular Proliferation Assay
(§2) • 1. Cell Line • KG-1 (ATCC Accession No. CCL-246), • SNU-16 (ATCC Accession No. CRL-5974), • RT-112 (ECACC Accession No. 85061106) • 2. Assay Protocol • FGFR related cancer cell proliferation is measured in 96-well plates using Cell Counting Kit-8 (Dojindo CK04-13). • Seed 30000 cells/well of KG1, 5000 cells/well of SNU16, and 1000 cells/well of RT112 in a volume of 100 μL/well in growth media. • After 24 hours, dilute the test compound to 10, 3.3, 1.1, 0.37, 0.12, 0.04, 0.013, 0.004 μM, keeping the DMSO concentration at 5%. • Add 10 μL of 8-point compound series to the wells of culturing cells. • Incubate at 37° C. and 5% CO2 for 72 hours • Add 10 μL/well of CCkit8 and incubate at 37° C. and 5% CO2 for an hour • Detect the optical density of each well at 450 nm on Labsystems Multiskan K3. • 3. Data Analysis
(§3) [formula] Note: • ODcompound well represents the optical density of cells treated with compound. • ODcell well represents the optical density of cells without compounds treatment.(only 0.5% DMSO) • ODcontrol well represents the optical density of culture media background • IC50: determined with add-in software for Microsoft Excel, XLfit™ (version 2.0) from ID Business Solutions (Guildford, UK).

KG-1 = assay: Cellular Proliferation Assay (Cell Counting Kit-8), KG-1; format: cell-based; conditions: Homo sapiens; KG-1 cells, 72 hours; read-out: KG1 IC50
Method: as §1, §2, §3

RT-112 = assay: Cellular Proliferation Assay (Cell Counting Kit-8), RT-112; format: cell-based; conditions: Homo sapiens; RT-112 cells, 72 hours
Method: as §1, §2, §3

Recombinant human FGFR1 = Recombinant human FGFR1 (Homo sapiens, UniProt P11362); assay: Transcreener Kinase Assay of FGFR1; format: biochemical
Chain of Recombinant human FGFR1 (P11362 22-822): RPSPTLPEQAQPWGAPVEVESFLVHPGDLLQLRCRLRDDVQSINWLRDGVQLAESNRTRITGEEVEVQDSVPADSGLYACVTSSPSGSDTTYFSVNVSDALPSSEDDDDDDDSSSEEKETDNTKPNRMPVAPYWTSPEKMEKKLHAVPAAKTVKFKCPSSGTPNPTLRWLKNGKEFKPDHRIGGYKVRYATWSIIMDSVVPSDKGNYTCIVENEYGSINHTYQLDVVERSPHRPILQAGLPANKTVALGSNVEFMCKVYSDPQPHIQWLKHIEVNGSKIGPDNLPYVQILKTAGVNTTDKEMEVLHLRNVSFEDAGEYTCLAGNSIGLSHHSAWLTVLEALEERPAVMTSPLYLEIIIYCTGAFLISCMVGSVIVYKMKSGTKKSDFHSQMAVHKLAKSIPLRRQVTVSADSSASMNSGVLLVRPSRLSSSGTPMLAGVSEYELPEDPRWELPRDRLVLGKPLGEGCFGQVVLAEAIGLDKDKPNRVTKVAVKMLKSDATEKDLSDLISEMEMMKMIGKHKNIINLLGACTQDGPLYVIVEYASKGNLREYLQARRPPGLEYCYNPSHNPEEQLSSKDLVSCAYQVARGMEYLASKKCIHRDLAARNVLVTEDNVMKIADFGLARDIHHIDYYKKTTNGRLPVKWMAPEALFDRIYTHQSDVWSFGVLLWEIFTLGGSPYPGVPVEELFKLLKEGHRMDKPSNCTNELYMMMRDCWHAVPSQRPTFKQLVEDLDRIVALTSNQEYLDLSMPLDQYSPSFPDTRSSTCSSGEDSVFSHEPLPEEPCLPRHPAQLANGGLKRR
Method: (§4) • 1. […] Prepare Solution • Test compounds were solved in DMSO and were diluted with assay buffer to 5 folds of final concentration keeping the DMSO concentration at 5%. Further dilution are needed to make final concentrations are at 1, 0.33, 0.11, 0.037, 0.012, 0.004, 0.0014, 0.0005 μM; (the final concentration of DMSO is 1%). • Enzyme/Substrate stock Preparation: Recombinant human FGFR1 and Poly E4Y are both diluted in assay buffer.
• 3. Enzymatic Reaction • In a 96-well plate, add 5 μL of diluted solution of test compound or control solution. (positive control: 5 μL of 5% DMSO; negative control: 5 μL of 500 mM EDTA) into desired wells respectively; • Add 10 μL of Enzyme/Substrate stock into each well; • Add 10 μL of ATP Diluents to initiate the enzyme reaction and vortex the plate immediately on a plate shaker; • For the wells to make standard curve, add 5 μL of 5% DMSO, 10 μL of assay buffer and 10 μL of ATP standard curve stock. • Incubate the plate for 45 min at 28° C. on a plate shaker in a low speed. • 4. […] Excitation wavelength: 610 nm, Emission wavelength: 670 nm. • 5. Data Analysis
(§5) [formula] Note: • [ADP] in Compound well represents the ADP concentration in test compound well. • [ADP] in Positive control well represents the ADP concentration in 5% DMSO well • Conversion of mP value to ADP concentration is calculated based on the formula which determined by standard curve. And mP value is measured by following the instruction provided by BellBrook Labs. (www.bellbrooklabs.com). • 6. IC50: determined with add-in software for Microsoft Excel, XLfit™ (version 2.0) from ID Business Solutions (Guildford, UK).

Recombinant human FGFR2 = Recombinant human FGFR2 (Homo sapiens, UniProt P21802); assay: Transcreener Kinase Assay of FGFR2; format: biochemical
Chain of Recombinant human FGFR2 (P21802 22-821): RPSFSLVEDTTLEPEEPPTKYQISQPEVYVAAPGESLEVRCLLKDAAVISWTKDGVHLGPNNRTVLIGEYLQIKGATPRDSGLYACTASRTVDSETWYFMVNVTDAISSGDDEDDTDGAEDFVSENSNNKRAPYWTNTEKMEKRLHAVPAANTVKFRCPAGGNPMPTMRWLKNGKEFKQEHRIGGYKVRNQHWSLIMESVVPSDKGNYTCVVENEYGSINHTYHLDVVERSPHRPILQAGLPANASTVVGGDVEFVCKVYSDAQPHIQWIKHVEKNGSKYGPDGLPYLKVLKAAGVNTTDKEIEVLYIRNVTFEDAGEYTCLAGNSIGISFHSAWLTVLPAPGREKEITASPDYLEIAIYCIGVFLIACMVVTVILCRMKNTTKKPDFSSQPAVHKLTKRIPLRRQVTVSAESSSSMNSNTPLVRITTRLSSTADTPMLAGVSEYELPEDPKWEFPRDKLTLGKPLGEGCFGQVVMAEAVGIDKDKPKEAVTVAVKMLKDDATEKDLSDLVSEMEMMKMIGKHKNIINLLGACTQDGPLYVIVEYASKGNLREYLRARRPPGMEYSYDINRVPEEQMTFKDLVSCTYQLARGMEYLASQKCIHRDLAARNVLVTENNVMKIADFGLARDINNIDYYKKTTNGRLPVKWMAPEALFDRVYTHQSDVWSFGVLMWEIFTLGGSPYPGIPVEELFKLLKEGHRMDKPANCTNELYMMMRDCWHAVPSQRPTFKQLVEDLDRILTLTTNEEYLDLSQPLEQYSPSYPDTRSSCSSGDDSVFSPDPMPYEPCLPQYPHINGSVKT
Method: Example 24: Transcreener Kinase Assay of FGFR2
as §4, with “FGFR2” for “FGFR1”, “buffer. The final concentration is 0.3 ng/μL for FGFR2 and 62.5 ng/μL for Poly E4Y. The mixture is being kept in ice before use; • Prepare ATP Diluents, 10 mM ATP is diluted in assay buffer, the final concentration is 25 μM; • Prepare ADP Diluents: diluted ADP (500 μM) in assay buffer, the final concentration is 25 μM; • Prepare ATP standard curve stock as following:” for “buffer.”
• 3. Enzymatic Reaction • In a 96-well plate, add 5 μL of deluted solution of test compound or control solution. (positive control: 5 μL of 5% DMSO; negative control: 5 μL of 500 mM EDTA) into desired wells respectively; • Add 10 μL of Enzyme/Substrate stock into each well; • Add 10 μL of ATP Diluents to initiate the enzyme reaction and vortex the plate immediately on a plate shaker; • For the wells to make standard curve, add 5 μL of 5% DMSO, 10 μL of assay buffer and 10 μL of ATP standard curve stock. • Incubate the plate for 45 min at 28° C. on a plate shaker in a low speed. • 4. Stoping Reaction and Detecting ADP • Detection Mix Preparation: The mixture is made by dilution with MilliQ water; as following: ADP Alexa633 tracer (1:100), ADP antibody (1:158), and stop & detect buffer (1:10); • Tracer Only control Preparation: The mixture is made by dilution with MilliQ water; as following: ADP Alexa633 tracer (1:100), and stop & detect buffer (1: 10) • No Tracer control Preparation: stop & detect buffer is diluted with MilliQ water; by 10 fold. • Add 25 μL of detection mix, Tracer Only control and No Tracer control into corresponding wells, respectively; • Incubate at 28° C. for 1 h, on a plate shaker in a low speed; • Measure florescence polarization (mP) on TECAN F500. Excitation wavelength: 610 nm, Emission wavelength: 670 nm. • 5. Data Analysis
as §5

FGFR3 kinase = FGFR3 kinase (Homo sapiens, UniProt P22607); assay: Z-Lyte Kinase Assay of FGFR3; format: biochemical
Chain of FGFR3 kinase (P22607 23-806): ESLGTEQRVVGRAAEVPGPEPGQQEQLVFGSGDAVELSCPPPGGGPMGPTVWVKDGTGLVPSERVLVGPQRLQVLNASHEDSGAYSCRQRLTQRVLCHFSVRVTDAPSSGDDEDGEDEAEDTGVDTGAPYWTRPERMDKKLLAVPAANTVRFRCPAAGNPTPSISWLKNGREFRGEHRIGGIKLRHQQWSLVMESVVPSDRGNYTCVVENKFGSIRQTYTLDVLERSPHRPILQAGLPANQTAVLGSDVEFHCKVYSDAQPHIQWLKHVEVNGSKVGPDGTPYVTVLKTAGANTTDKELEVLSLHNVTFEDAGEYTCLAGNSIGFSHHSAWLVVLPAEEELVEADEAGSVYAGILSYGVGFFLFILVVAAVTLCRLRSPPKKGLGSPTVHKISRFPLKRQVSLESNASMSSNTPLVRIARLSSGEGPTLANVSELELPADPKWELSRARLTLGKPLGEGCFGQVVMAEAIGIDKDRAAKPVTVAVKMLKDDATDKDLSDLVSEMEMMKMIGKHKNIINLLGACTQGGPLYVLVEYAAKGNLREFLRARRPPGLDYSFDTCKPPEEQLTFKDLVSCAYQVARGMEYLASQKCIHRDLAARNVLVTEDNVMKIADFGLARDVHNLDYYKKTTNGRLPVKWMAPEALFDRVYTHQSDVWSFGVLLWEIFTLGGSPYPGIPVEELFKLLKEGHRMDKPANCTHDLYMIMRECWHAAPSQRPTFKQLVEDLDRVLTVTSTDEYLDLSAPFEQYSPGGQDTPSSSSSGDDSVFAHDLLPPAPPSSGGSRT
Method: Example 25: Z-Lyte Kinase Assay of FGFR3
• 1. Materials and Reagents:
• 2. Reaction Steps: Plate Map
• 3. […] The final concentrations are 1, 0.33, 0.11, 0.037, 0.012, 0.004, 0.0014, 0.00046 μM, and the final concentration of DMSO is 2%. • 3) Kinase/Peptide Mixture (P/K solution): Prepare Kinase/Peptide Mixture by diluting the kinase to 0.7 μg/ml and the Z-LYTE™ Tyr 4 peptide to 4 μM in 1.33× Kinase Buffer. Mix gently by pipetting. • 4) Phospho-peptide Solution (PP solution): Add 0.4 μl of Z-LYTE™ Tyr 4 Phospho-peptide to 99.6 μl of 1.33× Kinase Buffer. • 5) ATP Solution: Prepare ATP Solution by diluting the 10 mM of ATP in 1.33× Kinase Buffer to 300 uM. • 6) Development Solution: Dilute Development Reagent B with Development Buffer as 1:128. • 4. […] Shake the plate for 30 Sec and centrifuge (1500 rpm, 1 min). • Seal the plate to protect from the light and incubate the plate for 1 hour at RT (25-30° C.). • 2) Development reaction • Add 5 μl of the Development solution to all wells. • Shake the plate for 30 Sec and centrifuge (1500 rpm, 1 min). • Seal the plate to protect from the light and incubate the plate for 1 hour at RT (25-30° C.). • 3) Stop and Read • Add 5 μl of the Stop reagent to all wells. • Shake the plate for 30 Sec and centrifuge (1500 rpm, 1 min). • Measure the value of Coumarin (Ex400 nm, Em445 nm) and fluorescein (Ex400 nm, Em520 nm), respectively. • 5. Data Analysis Emission Ratio(ER)=Coumarin Emission (445 nm)/Fluorescein Emission (520 nm) % Phosphorylation=1−[ER×C3520nm-C3445nm]/[(C1445nm-C3445nm)+ER×(C3520nm−C1520nm)] Inhibition rate (IR)=1−% Photest Cpd/% PhoC2 • 6. IC50 Value: determined with add-in software for Microsoft Excel, XLfit™ (version 2.0) from ID Business Solutions (Guildford, UK)

Row | SMILES | IC50 (SNU-16) [nM] | IC50 (Recombinant human FGFR1; read-out: FGFR1 (FP) IC50) [nM] | IC50 (Recombinant human FGFR2; read-out: FGFR2 (FP) IC50) [nM] | IC50 (FGFR3 kinase) [nM] | IC50 (Recombinant human FGFR1; FP) [nM] | IC50 (Recombinant human FGFR2; FP) [nM] | IC50 (FGFR3 kinase; Z-lyte) [nM] | IC50 (KG-1) [nM] | IC50 (RT-112) [nM]
1 | CNC(=O)c1cc(CCc2cnc(Nc3ccc(N4C[C@@H](C)N(C)[C@@H](C)C4)cc3)nc2)c(Cl)c(OC)c1 [Compound 175] | 12 | 12 | 8 | 6 |  |  |  | 11 | 30
2 | CNC(=O)c1cc(OC)c(F)c(COc2cnc(Nc3ccc(N4C[C@@H](C)N[C@@H](C)C4)nc3)nc2)c1F [Compound 278] | 27 |  |  |  | 23 | 14 | 20 | 34 | 65
3 | CCN1[C@H](C)CN(c2ccc(Nc3ncc(OCc4cc(C(=O)NC)cc(OC)c4F)cn3)cn2)C[C@@H]1C [Compound 281] | 14 |  |  |  | 19 | 14 | 19 | 9 | 37
4 | CNC(=O)c1cc(COc2cnc(Nc3ccc([C@H]4CCCNC4)nc3)nc2)c(Cl)c(OC)c1 [Compound 245] | 136 | 16 | 17 | 18 |  |  |  | 533 | 581
5 | CNC(=O)c1cc(CCc2cnc(Nc3cnn(C[C@H](C)O)c3)nc2)c(Cl)c(OC)c1 [Compound 88] | 24 | 12 | 5 | 3 |  |  |  | 30 | 50
6 | CNC(=O)c1cc(COc2cnc(Nc3ccc(N4C[C@@H](C)N(C)[C@@H](C)C4)nc3)nc2)c(F)c(OC)c1 [Compound 268] | 18 | 21 | 16 | 20 |  |  |  | 17 | 47
7 | CNC(=O)c1cc(COc2cnc(Nc3ccc([C@H]4CCCN(C(C)=O)C4)nc3)nc2)c(Cl)c(OC)c1 [Compound 284] | 33 |  |  |  | 39 | 24 | 43 | 71 | 72
8 | CCN(CC)CCOc1ccc(Nc2ncc(OCc3cc(C(=O)NC)cc(OC)c3F)cn2)cc1 [Compound 262] | 29 | 43 | 20 | 21 |  |  |  | 37 | 133
9 | CNC(=O)c1cc(COc2cnc(Nc3ccc(-n4nccn4)cc3)nc2)c(Cl)c(OC)c1 [Compound 233] | 63 | 98 | 31 | 310 |  |  |  | 58 | 121

The next lines start with results.

Row | IC50 (SNU-16) [nM] | IC50 (Recombinant human FGFR1; read-out: FGFR1 (FP) IC50) [nM] | IC50 (Recombinant human FGFR2; read-out: FGFR2 (FP) IC50) [nM] | IC50 (FGFR3 kinase) [nM] | IC50 (Recombinant human FGFR1; FP) [nM] | IC50 (Recombinant human FGFR2; FP) [nM] | IC50 (FGFR3 kinase; Z-lyte) [nM] | SMILES | IC50 (KG-1) [nM] | IC50 (RT-112) [nM]
10 | 7 | 25 | 12 | 21 |  |  |  | CNC(=O)c1cc(COc2cnc(Nc3ccc(OC)c(OC)c3)nc2)c(F)c(OC)c1 [Compound 218] | 27 | 44
11 | 7 | 26 | 13 | 18 |  |  |  | CNC(=O)c1cc(COc2cnc(Nc3ccc(N4CCOCC4)c(OC)c3)nc2)c(F)c(OC)c1 [Compound 261] | 19 | 13
12 | 20 | 10 | 7 | 11 |  |  |  | CNC(=O)c1cc(COc2cnc(Nc3cccc(NC(C)=O)c3)nc2)c(F)c(OC)c1 [Compound 216] | 24 | 132
13 | 3 |  |  |  | 12 | 5 | 4 | CCN1CCN(c2ccc(Nc3ncc(OCc4cc(C(=O)NC)cc(OC)c4F)cn3)cc2OC)CC1 [Compound 283] | 8 | 8
14 | 10 | 18 | 9 | 8 |  |  |  | CNC(=O)c1cc(COc2cnc(Nc3ccc(OC)c(N4CCN(C)CC4)c3)nc2)c(F)c(OC)c1 [Compound 270] | 52 | 23
15 | 32 | 30 | 10 | 27 |  |  |  | CNC(=O)c1cc(COc2cnc(Nc3ccc(S(C)(=O)=O)cc3)nc2)c(F)c(OC)c1 [Compound 226] | 35 | 285
16 | 39 | 24 | 14 | 13 |  |  |  | CNC(=O)c1cc(COc2cnc(Nc3ccnc(N4C[C@@H](C)N[C@@H](C)C4)c3)nc2)c(F)c(OC)c1 [Compound 259] | 220 | 141

— US9701680B2, “Pyrimidine and pyridine compounds and their usage” (HUTCHISON MEDIPHARMA LIMITED, priority 2013, dated 2017)
